# Assay results as given in ChEMBL document CHEMBL1153715, “An antimicrobial guanidine-bearing sesterterpene from the cultured cyanobacterium Scytonema sp” (J Nat Prod, 2009).
# pIC50: −log10 of the molar value.
# How the values were obtained:
# [1] = test system: Mycobacterium tuberculosis; assay: Antitubercular activity against Mycobacterium tuberculosis H37Rv after 7 days by microplate alamar blue assay; assay type: functional; conditions: 168 h
# Bacillus anthracis = assay: Antibacterial activity against Bacillus anthracis after 18 hrs by broth microdilution method; assay type: functional
# Staphylococcus aureus = assay: Antibacterial activity against Staphylococcus aureus by broth microdilution method; assay type: functional
# Escherichia coli = assay: Antibacterial activity against Escherichia coli by broth microdilution method; assay type: functional
# Candida albicans = assay: Antifungal activity against Candida albicans by broth microdilution method; assay type: functional
# Vero = assay: Cytotoxicity against african green monkey Vero cells by cell Titer_Glo assay; assay type: cell-based; conditions: Chlorocebus sabaeus
structure (smiles),measurement,setting,value
C=C1CC[C@@H]2[C@](C)(CC[C@H]3[C@@]2(C)CC[C@H]2C(C)(C)CC[C@@H](O)[C@@]23C)[C@H]1CNC(=N)N [SCYTOSCALAROL],MIC,[1],110 µM
same,MIC,Bacillus anthracis,6 µM
same,MIC,Staphylococcus aureus,2 µM
same,MIC,Escherichia coli,30 µM
same,MIC,Candida albicans,4 µM
same,pIC50,Vero,3.87
